From US20140315933A1, “CHEMICAL COMPOUNDS” (Pfizer Limited, priority 2013, published 2014) come the findings set out here.

Counter-ions that a name gives are not always drawn. Where only a bound is given, the exact number is not on record here.

One experiment concerns the target T1, URAT-1 transporter (Homo sapiens, UniProt Q96S37).
T1 construct: expressed in transfected cells
Description: URAT-1 inhibitor activity: [14C]-uric acid uptake into CHO-URAT1(L)GFP#8 (CHO#8) cells, scintillation proximity. It counts as cell-based.
Conditions: not given
An excerpt:
The nucleotide sequence for the long isoform of URAT1 (NM_144585) was C-terminally fused to that of enhanced green fluorescent protein (eGFP) (hereinafter referred to as URAT1(L)GFP). The combined sequence was codon-optimised and custom synthesized. The synthesized sequence was generated in pDONR221 Gateway entry vector (Invitrogen Life Technologies) prior to cloning in pLenti6.3/V5 Gateway destination vector (Invitrogen Life Technologies).
Lentiviral particles were generated according to ViraPower HiPerform expression system procedure (Invitrogen Life Technologies) and used to transduce CHO cells. Blasticidin selection enabled the generation of a stable clonal pool of cells, confirmed by expression of GFP and V5 epitope. The clonal pools were sorted using fluorescence-activated cell sorting (FACS) on the basis of GFP expression with the gating set at the top 50% of expression into single cells which were subsequently expanded to generate clonal lines. […] This cell line was used for all screening activities and is referred to as CHO-URAT1(L)GFP#8 or CHO#8.
The potency of the compounds of formula (I) as inhibitors of the URAT-1 transporter was determined as follows.
CHO#8 cells were cultured in cell line maintenance flasks in medium consisting of Dulbecco's modified Eagle medium (DMEM) with high glucose and sodium pyruvate (4.5 g of glucose per litre, Invitrogen Life Technologies), supplemented with heat-inactivated foetal bovine serum (FBC, 10% v/v), 1×NEAA (non-essential amino acids) and blasticidin (10 μg/ml). Cultures were grown in 175 cm^2 tissue culture flasks in a humidified incubator at approximately 37° C. in approximately 95% air/5% CO2. Near confluent CHO#8 cell cultures were harvested by trypsinisation, re-suspended in culture medium and the process was repeated once or twice weekly to provide sufficient cells for use.
Assay ready flasks were generated by the same method, except the cells were not cultured in blasticidin.
Assay ready frozen cells were generated by freezing 40,000,000 cells in 1 ml of FBS (without blasticidin) containing 10% DMSO per vial. One vial was sufficient for 5 assay plates. Each vial was thawed rapidly to 37° C., washed and re-suspended in pre-warmed culture medium for seeding onto assay plates.
CHO#8 cells were seeded onto Cytostar™ 96-well plates at a density of […]. The cells were cultured for 1 day at approximately 37° C. in a humidified incubator containing approximately 5% CO2 in air. After approximately 24 hours culture, cells were used for uptake experiments.
On the day of assay, culture medium was removed from the wells and the cells were washed once with 50 μL of chloride-containing buffer (136.7 mM NaCl, 5.36 mM KCl, 0.952 mM CaCl2, 0.441 mM KH2PO4, 0.812 mM MgSO4, 5.6 mM D-glucose, 0.383 mM Na2HPO4.2H2O, 10 mM HEPES, pH 7.4 with NaOH). The cells were pre-incubated with another 50 μL of chloride-containing buffer for one hour at approximately 37° C. in a humidified incubator containing approximately 5% CO2 in air.
Assay compound plates were prepared by diluting the compounds of formula (I) with chloride-free buffer (125 mM Na-gluconate, 4.8 mM K-gluconate, 1.3 mM Ca-gluconate, 1.2 mM KH2PO4, 1.2 mM MgSO4, 5.6 mM D-glucose, 25 mM HEPES, pH 7.4 with NaOH) in 100% DMSO to a final concentration of 1% DMSO. [^14C]-Uric Uric acid working stock was made by addition of radiolabeled compound to a final concentration of 120 nM in chloride-free buffer. In all wells, the final assay concentration of solvent (DMSO) was 0.25%; the final assay concentration of [^14C]-uric acid was 30 nM in chloride-free buffer and the final compound of formula (I) concentrations ranged from 0 to 10 μM.
After pre-incubation, cells were washed with 50 μL of chloride-free buffer and another 50 μL of chloride-free buffer was added. […]
A general note: Scintillation proximity formats need no separation of bound from free tracer.
Consider `N#Cc1ccc(Oc2ccc(S(=O)(=O)Nc3nccs3)cc2C#N)cc1Cl` [Example 1, 4-(3-chloro-4-cyanophenoxy)-3-cyano-N-(1,3-thiazol-2-yl)benzenesulfonamide], for which the IC50 (usually the point on the concentration scale where inhibition reaches its midpoint) was 58 nM.
On to `CCc1cc(F)ccc1Oc1ccc(S(=O)(=O)Nc2ncns2)cc1CC` [Example 2, 3-ethyl-4-(2-ethyl-4-fluorophenoxy)-N-(1,2,4-thiadiazol-5-yl)benzenesulfonamide diethylamine salt], for which inhibition was half-maximal at 64 nM (IC50).
Same read-out and setting: then `CCc1cc(F)ccc1Oc1ccc(S(=O)(=O)Nc2ncns2)cc1I` [Example 3, 4-(2-ethyl-4-fluorophenoxy)-3-iodo-N-(1,2,4-thiadiazol-5-yl)benzenesulfonamide], with 69 nM.
Same read-out and setting: next, `Cn1ccc(NS(=O)(=O)c2ccc(Oc3ccc(C#N)c(Cl)c3)c(C#N)c2)n1` [Example 4, 4-(3-chloro-4-cyanophenoxy)-3-cyano-N-(1-methyl-1H-pyrazol-3-yl)benzenesulfonamide diethylamine salt]: 3360 nM; `Cc1cc(NS(=O)(=O)c2ccc(Oc3ccc(C#N)c(Cl)c3)c(C#N)c2)no1` [Example 5, 4-(3-chloro-4-cyanophenoxy)-3-cyano-N-(5-methyl-1,2-oxazol-3-yl)benzenesulfonamide diethylamine salt]: greater than 10000 nM.
On to `O=S(=O)(Nc1nccs1)c1ccc(Oc2ccc(C(F)(F)F)cc2C(F)(F)F)c(F)c1` [Example 6, 4-[2,4-bis(trifluoromethyl)phenoxy]-3-fluoro-N-(1,3-thiazol-2-yl)benzenesulfonamide], for which the IC50 was greater than 10000 nM.
The same measure, in the same setting: next, `N#Cc1cc(S(=O)(=O)Nc2nccs2)ccc1Oc1ccc(CO)cc1F` [Example 7, 3-cyano-4-[2-fluoro-4-(hydroxymethyl)phenoxy]-N-(1,3-thiazol-2-yl)benzenesulfonamide, diethylamine salt]: 141 nM; `N#Cc1cc(S(=O)(=O)Nc2nccs2)ccc1Oc1ccc(Br)cc1CO` [Example 8, 4-[4-bromo-2-(hydroxymethyl)phenoxy]-3-cyano-N-(1,3-thiazol-2-yl)benzenesulfonamide]: 2140 nM.
In turn, `COc1cc(Cl)c(Cl)cc1Oc1ccc(S(=O)(=O)Nc2ncns2)cc1C#N` [Example 9, 3-cyano-4-(4,5-dichloro-2-methoxyphenoxy)-N-(1,2,4-thiadiazol-5-yl)benzenesulfonamide] yielded an IC50 greater than 2810 nM.
`COc1ccc(Cl)cc1Oc1ccc(S(=O)(=O)Nc2ncns2)cc1C#N` [Example 10, 4-(5-chloro-2-methoxyphenoxy)-3-cyano-N-(1,2,4-thiadiazol-5-yl)benzenesulfonamide diethylamine salt] returned an IC50 greater than 5760 nM.
On the same count and under the same terms, next, `CC(C)Oc1ccc(Cl)cc1Oc1ccc(S(=O)(=O)Nc2ncns2)cc1C#N` [Example 11, 4-[5-chloro-2-(propan-2-yloxy)phenoxy]-3-cyano-N-(1,2,4-thiadiazol-5-yl)benzenesulfonamide diethylamine salt]: 1380 nM; `CCOc1cc(Cl)ccc1Oc1ccc(S(=O)(=O)Nc2ncns2)cc1C#N` [Example 12, 4-(4-chloro-2-ethoxyphenoxy)-3-cyano-N-(1,2,4-thiadiazol-5-yl)benzenesulfonamide]: 354 nM; `N#Cc1cc(S(=O)(=O)Nc2ncns2)ccc1Oc1ccc(Cl)cc1` [Example 13, 4-(4-chlorophenoxy)-3-cyano-N-(1,2,4-thiadiazol-5-yl)benzenesulfonamide diethylamine salt]: 1270 nM.
`CC(C)c1cccc(Oc2ccc(S(=O)(=O)Nc3ncns3)cc2C#N)c1` [Example 14, 3-cyano-4-[3-(propan-2-yl)phenoxy]-N-(1,2,4-thiadiazol-5-yl)benzenesulfonamide diethylamine salt]: the IC50 was greater than 2900 nM.
Same read-out and setting: next, `N#Cc1ccc(Oc2ccc(S(=O)(=O)Nc3ncns3)cc2C#N)cc1` [Example 15, 3-cyano-4-(4-cyanophenoxy)-N-(1,2,4-thiadiazol-5-yl)benzenesulfonamide diethylamine salt]: greater than 7370 nM; `N#Cc1cc(S(=O)(=O)Nc2ncns2)ccc1Oc1ccc(Cl)cc1Cl` [Example 16, 3-cyano-4-(4,6-dichlorophenoxy)-N-(1,2,4-thiadiazol-5-yl)benzenesulfonamide]: 428 nM; `CCOc1ncccc1Oc1ccc(S(=O)(=O)Nc2ncns2)cc1C#N` [Example 17, 3-cyano-4-[(2-ethoxypyridin-3-yl)oxy]-N-(1,2,4-thiadiazol-5-yl)benzenesulfonamide diethylamine salt]: 161 nM.
`COc1ccncc1Oc1ccc(S(=O)(=O)Nc2ncns2)cc1C#N` [Example 18, 3-cyano-4-[(4-methoxypyridin-3-yl)oxy]-N-(1,2,4-thiadiazol-5-yl)benzenesulfonamide] showed an IC50 greater than 10000 nM.
Still for that read-out and setting: next, `N#Cc1cc(S(=O)(=O)Nc2ncns2)ccc1Oc1cncc(Cl)c1` [Example 19, 4-[(5-chloropyridin-3-yl)oxy]-3-cyano-N-(1,2,4-thiadiazol-5-yl)benzenesulfonamide]: greater than 10000 nM; `COc1ccc(Oc2ccc(S(=O)(=O)Nc3ncns3)cc2C#N)cn1` [Example 20, 3-cyano-4-[(6-methoxypyridin-3-yl)oxy]-N-(1,2,4-thiadiazol-5-yl)benzenesulfonamide]: greater than 7520 nM; `N#Cc1cc(S(=O)(=O)Nc2ncns2)ccc1Oc1ccc(C(F)(F)F)nc1` [Example 21, 3-cyano-N-(1,2,4-thiadiazol-5-yl)-4-{[6-(trifluoromethyl)pyridin-3-yl]oxy}benzenesulfonamide]: greater than 10000 nM.
The molecule `N#Cc1cc(Cl)ccc1Oc1ccc(S(=O)(=O)Nc2ncns2)cc1C#N` [Example 22, 4-(4-chloro-2-cyanophenoxy)-3-cyano-N-(1,2,4-thiadiazol-5-yl)benzenesulfonamide] yielded an IC50 of 3160 nM.
In turn, `N#Cc1ccc(Oc2ccc(S(=O)(=O)Nc3ncns3)cc2C#N)c(OC(F)F)c1` [Example 23, 3-cyano-4-[4-cyano-2-(difluoromethoxy)phenoxy]-N-(1,2,4-thiadiazol-5-yl)benzenesulfonamide] gave an IC50 greater than 10000 nM.
With `N#Cc1ccc(OC(F)F)c(Oc2ccc(S(=O)(=O)Nc3ncns3)cc2C#N)c1` [Example 24, 3-cyano-4-[5-cyano-2-(difluoromethoxy)phenoxy]-N-(1,2,4-thiadiazol-5-yl)benzenesulfonamide diethylamine salt], the IC50 is greater than 10000 nM.
On the same count and under the same terms, next, `COc1cc(C(F)(F)F)ccc1Oc1ccc(S(=O)(=O)Nc2ncns2)cc1C#N` [Example 25, 3-cyano-4-[2-methoxy-4-(trifluoromethyl)phenoxy]-N-(1,2,4-thiadiazol-5-yl)benzenesulfonamide diethylamine salt]: greater than 10000 nM; `COc1cc(Cl)cc(Cl)c1Oc1ccc(S(=O)(=O)Nc2ncns2)cc1C#N` [Example 26, 3-cyano-4-(2,4-dichloro-6-methoxyphenoxy)-N-(1,2,4-thiadiazol-5-yl)benzenesulfonamide diethylamine salt]: 875 nM; `COc1cc(OC(F)(F)F)ccc1Oc1ccc(S(=O)(=O)Nc2ncns2)cc1C#N` [Example 27, 3-cyano-4-[2-methoxy-4-(trifluoromethoxy)phenoxy]-N-(1,2,4-thiadiazol-5-yl)benzenesulfonamide diethylamine salt]: greater than 10000 nM.

Still in this experiment, the particulars now being: inhibition of [14C]-uric acid (30 nM) uptake into CHO#8 cells; compound 0 to 10 μM; 4 parameter logistic fit.
In turn, “3-chloro-4-(4-chlorophenoxy)-N-(1,2,4-thiadiazol-5-yl)benzenesulfonamide diethylamine salt [Example 62]” yielded an IC50 of 722 nM.
Still for that read-out and setting: then “5-chloro-4-(3,4-difluorophenoxy)-2-fluoro-N-(1,3-thiazol-4-yl)benzenesulfonamide [compound 230]”, with 747 nM.
